The record followed here is PubChem BioAssay (NCI).

Some test systems named below: SN12C renal; OVCAR-3 ovarian; A549 NSCLC; LOX IMVI melanoma; SW-620 colon; RXF 393 renal; SK-MEL-5 melanoma; A498 renal; SR leukemia; OVCAR-8 ovarian.
Holding throughout (assay): NCI tumour cell line growth inhibition, 48 h

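1) Cells in 96-well plates. 2) Compound, 48 h, 5 concentrations. 3) Linear interpolation between surrounding doses. 4) Unreached endpoint = highest concentration. GI50: concentration for 50% inhibition of growth. TGI: total growth inhibition.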 A value given as a limit tells only on which side of the number the result lay.

In the case of `COc1ccc(-c2c(C3=NCCN3)nnn2-c2ccccc2)cc1`, the TGI in the test on SN12C renal, in the test with OVCAR-3 ovarian, with A549 NSCLC, with LOX IMVI melanoma, with SW-620 colon and in the test on RXF 393 renal was over 100 µM each time. The TGI in the test with SK-MEL-5 melanoma, in the test on A498 renal, in the test with SR leukemia and in the test with OVCAR-8 ovarian was over 100 µM throughout.

With `Cc1cc(/C=C2\SC(=Nc3ccccc3)N(C3CCCC3)C2=O)c(C)n1-c1ccc(Cl)cc1`, the GI50 in the test with SN12C renal, with OVCAR-3 ovarian, with A549 NSCLC, with LOX IMVI melanoma, with SW-620 colon and in the test on RXF 393 renal was over 100 µM in each case. Besides, the GI50 with SK-MEL-5 melanoma was over 100 µM; with A498 renal it was 0.295 µM; in the test on SR leukemia it was over 100 µM; with OVCAR-8 ovarian, over 100 µM. Further, the TGI with SN12C renal, with OVCAR-3 ovarian, in the test with A549 NSCLC, with LOX IMVI melanoma, with SW-620 colon and with RXF 393 renal was over 100 µM throughout. Further, the TGI with SK-MEL-5 melanoma, with A498 renal, in the test with SR leukemia and with OVCAR-8 ovarian was over 100 µM in each case.

Turning to `CC1=C2C(O)C(C(C)CO)C(O)CC2(C)C(O)CC1` (stereo not given), the TGI in the test with SN12C renal, in the test on OVCAR-3 ovarian, in the test on A549 NSCLC, in the test on LOX IMVI melanoma, with SW-620 colon and in the test on RXF 393 renal was over 100 µM each time. For the same compound, the TGI in the test on SK-MEL-5 melanoma, with A498 renal, in the test on SR leukemia and with OVCAR-8 ovarian was over 100 µM throughout.

For `COc1cc(-c2cnn(C)c2)ccc1Nc1ncc2ccnc(N[C@@H](C)C(C)(C)C)c2n1`, the GI50 with SN12C renal was over 100 µM; with OVCAR-3 ovarian, over 89.8 µM; in the test on A549 NSCLC it was over 45.5 µM; in the test on LOX IMVI melanoma it was 5.43 µM; in the test with SW-620 colon, 1.46 µM; in the test with RXF 393 renal, 8.98 µM. Moreover, the GI50 in the test with SK-MEL-5 melanoma was over 79 µM; in the test on A498 renal, over 100 µM; in the test with SR leukemia, 0.695 µM; with OVCAR-8 ovarian, over 49.6 µM. The TGI in the test on SN12C renal, in the test on OVCAR-3 ovarian, in the test on A549 NSCLC, in the test on LOX IMVI melanoma, with SW-620 colon and in the test on RXF 393 renal was over 100 µM throughout. Moreover, the TGI in the test with SK-MEL-5 melanoma, in the test with A498 renal, with SR leukemia and with OVCAR-8 ovarian was over 100 µM throughout.

As for `Nc1nc(-c2cccc([N+](=O)[O-])c2)c(Br)c(=O)[nH]1`, the TGI in the test with SN12C renal is over 100 µM; with OVCAR-3 ovarian it was over 100 µM; in the test with A549 NSCLC, over 71.4 µM; in the test on LOX IMVI melanoma it was over 100 µM; in the test with SW-620 colon, over 100 µM; in the test on RXF 393 renal, over 100 µM. In addition, the TGI in the test on SK-MEL-5 melanoma is over 91.1 µM; with A498 renal it was over 100 µM; in the test on SR leukemia, over 100 µM; in the test with OVCAR-8 ovarian, over 100 µM.

Take `Cc1ccc(C(=O)c2oc3ccc4c(C)cc(=O)oc4c3c2C)cc1`: the GI50 is 10.4 µM in the test on SN12C renal; 14.7 µM in the test on OVCAR-3 ovarian; 4.97 µM in the test on A549 NSCLC; 2.45 µM with LOX IMVI melanoma; 8.56 µM with SW-620 colon; 13.8 µM in the test on RXF 393 renal. Besides, the GI50 with SK-MEL-5 melanoma was 2.69 µM; with A498 renal, 10.1 µM; in the test with SR leukemia, 25.1 µM; with OVCAR-8 ovarian it was 6.08 µM. Further, the TGI in the test with SN12C renal was over 100 µM; in the test with OVCAR-3 ovarian it was 54.8 µM; in the test on A549 NSCLC, over 100 µM; in the test with LOX IMVI melanoma it was 19.1 µM; in the test on SW-620 colon, over 100 µM; with RXF 393 renal it was 91 µM. The TGI in the test on SK-MEL-5 melanoma, in the test on A498 renal, in the test with SR leukemia and with OVCAR-8 ovarian was over 100 µM in each case.

Regarding `COc1cc2nc(-c3ccc(C(F)(F)F)cc3)cc(OCCCN3CCOCC3)c2cc1OC`, the GI50 in the test on SN12C renal is 0.675 µM; with OVCAR-3 ovarian, 3.72 µM; in the test with A549 NSCLC, 1.04 µM; with LOX IMVI melanoma, 0.141 µM; in the test on SW-620 colon, 3.51 µM; in the test with RXF 393 renal it was 0.706 µM. In addition, the GI50 in the test with SK-MEL-5 melanoma was 0.288 µM; in the test with A498 renal, 1.51 µM; in the test with SR leukemia it was 0.242 µM; in the test with OVCAR-8 ovarian it was 1.95 µM. Also, the TGI in the test with SN12C renal turned out to be 19.7 µM; in the test on OVCAR-3 ovarian it was 18.4 µM; with A549 NSCLC, 20 µM; with LOX IMVI melanoma, 0.324 µM; in the test with SW-620 colon, 15.4 µM; in the test on RXF 393 renal it was 3.65 µM. Further, the TGI with SK-MEL-5 melanoma is 0.997 µM; with A498 renal, 4.52 µM; in the test with SR leukemia, 14.3 µM; in the test on OVCAR-8 ovarian, 28.8 µM.

Take `O=c1oc2ccccc2c(O)c1/C=N\c1nc(-c2ccccc2)cs1`: the TGI in the test with SN12C renal was 23.1 µM; in the test on OVCAR-3 ovarian, 30.8 µM; in the test on A549 NSCLC, over 100 µM; with LOX IMVI melanoma it was 23.6 µM; with SW-620 colon, 16.2 µM; in the test with RXF 393 renal, 26.9 µM. Moreover, the TGI in the test on SK-MEL-5 melanoma is 9.65 µM; in the test with A498 renal, over 100 µM; in the test on SR leukemia, 5.31 µM; in the test on OVCAR-8 ovarian it was over 100 µM.

For the compound `COc1cc(OC)c(/C=C/c2ccc3ccccc3[n+]2C)c(OC)c1`, the GI50 in the test with SN12C renal was 0.36 µM; with OVCAR-3 ovarian, 0.56 µM; in the test on A549 NSCLC, 0.748 µM; with LOX IMVI melanoma it was 1.33 µM; in the test on SW-620 colon, 0.902 µM; in the test on RXF 393 renal it was 2.06 µM. Moreover, the GI50 in the test with SK-MEL-5 melanoma is 0.567 µM; in the test with A498 renal, 0.535 µM; in the test with SR leukemia it was 0.35 µM; in the test on OVCAR-8 ovarian it was 0.507 µM. The TGI in the test with SN12C renal is 16.9 µM; in the test on OVCAR-3 ovarian it was 3.9 µM; in the test on A549 NSCLC, 13.9 µM; in the test with LOX IMVI melanoma, 3.99 µM; in the test on SW-620 colon, 11.3 µM; with RXF 393 renal it was 11.7 µM. In addition, the TGI turned out to be 1.95 µM in the test with SK-MEL-5 melanoma, 5.42 µM in the test with A498 renal, 2.68 µM in the test with SR leukemia and 6.48 µM in the test with OVCAR-8 ovarian.
